These results are taken from patent US20230212164A1, “ANNULATED 2-AMINO-3-CYANO THIOPHENES AND DERIVATIVES FOR THE TREATMENT OF CANCER” (BOEHRINGER INGELHEIM INTERNATIONAL GMBH, priority 2020, published 2023).

The target in the first assay is T1, protein-protein interaction between SOS1 and KRAS G12C (Homo sapiens, UniProt P01116, C118S/C51S/C80L/G12C).
T1 construct: His6 (N)
T1 sequence (P01116 1-169 isoform P01116-2 G12C/C51S/C80L/C118S): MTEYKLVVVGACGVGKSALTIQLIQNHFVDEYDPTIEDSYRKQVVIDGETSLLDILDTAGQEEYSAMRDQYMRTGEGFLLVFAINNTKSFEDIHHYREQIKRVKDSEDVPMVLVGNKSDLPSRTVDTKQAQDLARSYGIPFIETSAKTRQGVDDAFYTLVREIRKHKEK
Put plainly: KRAS::SOS1 AlphaScreen binding assay. The following applies: Table 35. The protocol:
KRAS::SOS1 AlphaScreen Binding Assay
Assay buffer: • 1×PBS • 0.1% BSA • 0.05% Tween 20
AlphaLISA Glutathione Acceptor Beads and AlphaScreen Streptavidin Donor Beads are mixed in assay buffer at a concentration of 10 μg/mL (final assay concentration) each prior to use and kept at room temperature.
Compounds are diluted to a final start concentration of 100 μM and are tested in duplicate. […] For compound a start concentration of 100 μM, 150 nL of compound solution is transferred per well in 11 concentrations in duplicate with serial 1:5 dilutions.
The assay is run using a fully automated robotic system in a darkened room below 100 Lux. 10 μL of KRAS::SOS1 GDP mix is added into columns 1-24 to the 150 nL of compound solution (final dilution in the assay 1:100, final DMSO concentration 1%).
After 30 minutes incubation time 5 μL of bead mix is added into columns 1-23. Plates are kept at room temperature in a darkened incubator. After further 60 minutes incubation, the signal is measured using a PerkinElmer Envision HTS Multilabel Reader using the AlphaScreen specifications from PerkinElmer. Each plate contains the following controls: • diluted DMSO+KRAS::SOS1 GDP mix+bead mix • diluted DMSO+KRAS::SOS1 GDP mix
IC50 values are calculated and analyzed using a 4 parametric logistic model.
For orientation: In Alpha technology, singlet oxygen from a donor bead excites a nearby acceptor bead.
For the compound `C=CC(=O)N1CCC(c2cc(-c3noc(C4(C)CCCc5sc(N)c(C#N)c54)n3)nc(N3CCN(C4CCCC4)CC3)c2)CC1` (centres unmarked) [Ia-2], the IC50 (commonly the point on the concentration scale where inhibition reaches its midpoint) was found to be 336 nM.

The same assay, now with this note: Table 36.
`C=CC(=O)N1CCN(c2cc(-c3noc(C4(C)CCCc5sc(N)c(C#N)c54)n3)nc(N3CCN(CCF)CC3)c2)CC1` (centres unmarked) [Ia-125] registered an IC50 of 232 nM.

`C=CC(=O)N1CCC2(CCN(c3cc(-c4noc([C@@]5(C)CCCc6sc(N)c(C#N)c65)n4)nc(N4CCCN(C)C[C@@H]4C)n3)C2)C1` (some centres unmarked) [Ia-96]: the IC50 stood at 799 nM.

In turn, `C=CC(=O)N1CCC(Oc2cc(O[C@@H](C)[C@@H]3CCCN3C)nc(-c3noc([C@]4(C)CCCc5sc(N)c(C#N)c54)n3)c2)CC1` [Ia-5] displayed an IC50 of 622 nM. Same read-out and setting: the value for `C=CC(=O)N1CCN(c2cc(-c3noc(C4CCCc5sc(N)c(C#N)c54)n3)nc(N3CCN(C)CC3)c2)CC1` (centres unmarked) [Ia-27] was 240 nM; that for `C=CC(=O)N1CCN(c2cc(-c3noc(C4(C)CCC(C)c5sc(N)c(C#N)c54)n3)nc(N3CCN(C4CCCC4)CC3)c2)CC1` (centres unmarked) [Ia-10] was 254 nM; that for `C=CC(=O)N1CCN(c2cc(-c3noc(C4(C)CCCc5sc(N)c(C#N)c54)n3)nc(N3CC[C@H](N4CCCC4)C3)c2)CC1` (some centres unmarked) [Ia-20] was 130 nM.

`C=CC(=O)N1CCN(c2cc(-c3noc(C4(C)CCCc5sc(N)c(C#N)c54)n3)nc(N3CCN(CC)C(C)C3)c2)CC1` (centres unmarked) [Ia-152] showed an IC50 of 43 nM. The same measure, in the same setting: for `C=CC(=O)N1CCN(c2cc(OC3CCN(C)CC3)nc(-c3noc(C4(C)CCCc5sc(N)c(C#N)c54)n3)c2)CC1` (centres unmarked) [Ia-118] the value was 21 nM. On to `C=CC(=O)N1CCN(c2cc(-c3noc(C4(C)CCCc5sc(N)c(C#N)c54)n3)nc(N3CCC(N4CC[C@H](F)C4)CC3)c2)CC1` (some centres unmarked) [Ia-40], for which the IC50 is 19 nM. For the compound `C=CC(=O)N1CC(CN(C)c2cc(-c3noc([C@@]4(C)CCCc5sc(N)c(C#N)c54)n3)nc(N3CCCN(C)C[C@@H]3C)n2)C1` [Ia-93], the IC50 amounted to 381 nM. Regarding `C=CC(=O)N1CCN(c2cc(-c3noc(C4(C)CCCc5sc(N)c(C#N)c54)n3)nc(N3CCC(N4CCCC4)CC3)c2)CC1` (centres unmarked) [Ia-36], the IC50 was found to be 24 nM. Still for that read-out and setting: for `C=CC(=O)N1CC2(CCN(c3cc(-c4noc(C5(C)CCCc6sc(N)c(C#N)c65)n4)nc(N4CCN(C)CC4)c3)C2)C1` (centres unmarked) [Ia-143] the value was 340 nM; for `C=CC(=O)N1CCN(c2cc(-c3noc(C4(C)CCCc5sc(N)c(C#N)c54)n3)cc(N3CCC(N4CCOCC4)CC3)c2)CC1` (centres unmarked) [Ia-32], 255 nM; for `C=CC(=O)N1CCN(c2cc(-c3noc(C4(C)CCCc5sc(N)c(C#N)c54)n3)nc(N3CCN(CC)CC3)c2)CC1C` (centres unmarked) [Ia-107], 198 nM. In turn, `C=CC(=O)N1CCN(c2cc(-c3noc(C4(C)CCCc5sc(N)c(C#N)c54)n3)nc(N3CCC(N4CCCC4)C3)c2)CC1` (centres unmarked) [Ia-23] registered an IC50 of 47 nM. `C=CC(=O)N1CCN(c2cc(-c3noc(C4(C)CCC(C)c5sc(N)c(C#N)c54)n3)nc(N3CCN(C)CC3)c2)CC1` (centres unmarked) [Ia-12] yielded an IC50 of 117 nM. Compound `C=CC(=O)N1CCN(c2cc(-c3noc(C4(C)CCCc5sc(N)c(C#N)c54)n3)nc(N3CCN(C(C)C)CC3)c2)CC1` (centres unmarked) [Ia-110] showed an IC50 of 76 nM. On to `C=CC(=O)N1CC[C@H](Oc2cc(-c3noc(C4(C)CCCc5sc(N)c(C#N)c54)n3)nc(N3CCN(C)CC3)c2)C1` (some centres unmarked) [Ia-117], for which the half-maximal inhibitory concentration (IC50) is 468 nM.

For `C=CC(=O)N1CCN(c2cc(-c3ccncc3)nc(-c3noc(C4(C)CCCc5sc(N)c(C#N)c54)n3)c2)CC1` (centres unmarked) [Ia-33], the IC50 amounted to 442 nM. Same read-out and setting: the value for `C=CC(=O)N1CCN(c2cc(-c3noc(C4(C)CCCc5sc(N)c(C#N)c54)n3)nc(N3CCN(C)CC34CC4)c2)CC1` (centres unmarked) [Ia-25] was 186 nM.

`C=CC(=O)N1CCN(c2cc(-c3noc(C4(C)CCCc5sc(N)c(C#N)c54)n3)nc(N3C[C@@H]4C[C@H]3CN4C3CCCC3)c2)CC1` (some centres unmarked) [Ia-115] yielded an IC50 of 63 nM.

The next assay has as its system pERK (Thr202/Tyr204) in NCI-H358 (KRAS G12C mutation). As to the kind of experiment: ERK phosphorylation assay 1 (AlphaLISA SureFire Ultra p-ERK1/2). The following applies: Homo sapiens, NCI-H358, read-out: IC50 H358 pERK.
With `C=CC(=O)N1CCN(c2cc(-c3noc(C4(C)CCCc5sc(N)c(C#N)c54)n3)nc(N3CCN(CCF)CC3)c2)CC1` (centres unmarked) [Ia-125], the IC50 was determined as 233 nM. The same measure, in the same setting: for `C=CC(=O)N1CCN(c2cc(-c3noc(C4CCCc5sc(N)c(C#N)c54)n3)nc(N3CCN(C)CC3)c2)CC1` (centres unmarked) [Ia-27] the value was 61.6 nM; for `C=CC(=O)N1CCN(c2cc(-c3noc(C4(C)CCC(C)c5sc(N)c(C#N)c54)n3)nc(N3CCN(C4CCCC4)CC3)c2)CC1` (centres unmarked) [Ia-10], 38.5 nM. Still for that read-out and setting: for `C=CC(=O)N1CCN(c2cc(-c3noc(C4(C)CCCc5sc(N)c(C#N)c54)n3)nc(N3CC[C@H](N4CCCC4)C3)c2)CC1` (some centres unmarked) [Ia-20] the value was 20.7 nM; for `C=CC(=O)N1CCN(c2cc(-c3noc(C4(C)CCCc5sc(N)c(C#N)c54)n3)nc(N3CCN(CC)C(C)C3)c2)CC1` (centres unmarked) [Ia-152], 5.9 nM; for `C=CC(=O)N1CCN(c2cc(OC3CCN(C)CC3)nc(-c3noc(C4(C)CCCc5sc(N)c(C#N)c54)n3)c2)CC1` (centres unmarked) [Ia-118], 7.5 nM. On to `C=CC(=O)N1CCN(c2cc(-c3noc(C4(C)CCCc5sc(N)c(C#N)c54)n3)nc(N3CCC(N4CC[C@H](F)C4)CC3)c2)CC1` (some centres unmarked) [Ia-40], for which the IC50 was 5.3 nM. On the same count and under the same terms, for `C=CC(=O)N1CCN(c2cc(-c3noc(C4(C)CCCc5sc(N)c(C#N)c54)n3)nc(N3CCC(N4CCCC4)CC3)c2)CC1` (centres unmarked) [Ia-36] the value was 12.2 nM. The same measure, in the same setting: for `C=CC(=O)N1CC2(CCN(c3cc(-c4noc(C5(C)CCCc6sc(N)c(C#N)c65)n4)nc(N4CCN(C)CC4)c3)C2)C1` (centres unmarked) [Ia-143] the value was 1330 nM; for `C=CC(=O)N1CCN(c2cc(-c3noc(C4(C)CCCc5sc(N)c(C#N)c54)n3)cc(N3CCC(N4CCOCC4)CC3)c2)CC1` (centres unmarked) [Ia-32], 35.6 nM; for `C=CC(=O)N1CCN(c2cc(-c3noc(C4(C)CCCc5sc(N)c(C#N)c54)n3)nc(N3CCN(CC)CC3)c2)CC1C` (centres unmarked) [Ia-107], 29.3 nM.

`C=CC(=O)N1CCN(c2cc(-c3noc(C4(C)CCCc5sc(N)c(C#N)c54)n3)nc(N3CCC(N4CCCC4)C3)c2)CC1` (centres unmarked) [Ia-23]: the IC50 was 6.5 nM. On the same count and under the same terms, the value for `C=CC(=O)N1CCC(c2cc(-c3noc(C4(C)CCCc5sc(N)c(C#N)c54)n3)nc(N3CCN(C4CCCC4)CC3)c2)CC1` (centres unmarked) [Ia-2] was 131 nM.

In the case of `C=CC(=O)N1CCN(c2cc(-c3noc(C4(C)CCC(C)c5sc(N)c(C#N)c54)n3)nc(N3CCN(C)CC3)c2)CC1` (centres unmarked) [Ia-12], the IC50 amounted to 13.5 nM. Same read-out and setting: for `C=CC(=O)N1CCN(c2cc(-c3noc(C4(C)CCCc5sc(N)c(C#N)c54)n3)nc(N3CCN(C(C)C)CC3)c2)CC1` (centres unmarked) [Ia-110] the value was 8.7 nM. The same measure, in the same setting: for `C=CC(=O)N1CC[C@H](Oc2cc(-c3noc(C4(C)CCCc5sc(N)c(C#N)c54)n3)nc(N3CCN(C)CC3)c2)C1` (some centres unmarked) [Ia-117] the value was 120 nM; for `C=CC(=O)N1CCN(c2cc(-c3ccncc3)nc(-c3noc(C4(C)CCCc5sc(N)c(C#N)c54)n3)c2)CC1` (centres unmarked) [Ia-33], 50.4 nM.

Turning to `C=CC(=O)N1CCN(c2cc(-c3noc(C4(C)CCCc5sc(N)c(C#N)c54)n3)nc(N3CCN(C)CC34CC4)c2)CC1` (centres unmarked) [Ia-25], the half-maximal inhibitory concentration (IC50) turned out to be 112 nM. Still for that read-out and setting: the value for `C=CC(=O)N1CCN(c2cc(-c3noc(C4(C)CCCc5sc(N)c(C#N)c54)n3)nc(N3C[C@@H]4C[C@H]3CN4C3CCCC3)c2)CC1` (some centres unmarked) [Ia-115] was 8.8 nM.
